Measurements from publication PMC9948168, “Vanillin-Based Indolin-2-one Derivative Bearing a Pyridyl Moiety as a Promising Anti-Breast Cancer Agent via Anti-Estrogenic Activity” (ACS Omega, 2023).
Values joined by “and” are separate entries in the source; they are usually repeats but may differ in a detail not shown here. Equal values may be shown once.

How the values were obtained:
[1] = system: estrogen-induced uterotrophic effect; experiment: In vivo anti-estrogenic (anti-uterotrophic) activity, immature rat model; set-up: species or system Wistar immature female rats; settings: oral, 20 mg/kg (tamoxifen 20 mg/kg/day, 6j equimolar per method), 3 days, with estradiol 10 μg/kg/day s.c.; immature female rats
Description: The anti-estrogenic activity was assessed as previously described.[65]−[67] All experiments were carried out in accordance with the recommendations of the […] Animal Care and Use Committee. The experimental protocol was approved by “The Commission on the Ethics of Scientific Research”, Faculty of Pharmacy, Minia University (no. ES30/2021). 20-day-old Wistar immature female rats (40–50 g) from the animal care facility of Nahda University at Beni Suef (NUB) were allowed to acclimatize to lab conditions for 3 days before the experiment with free access to food and water. Estradiol was diluted in olive oil and subcutaneously injected on the loose dorsal skin in a dose of 10 μg/kg/day. […] Both compounds were dissolved in a mixture of DMSO, Tween 20, and saline (1:1:8, respectively) and orally administered. The rats were randomly assigned to […] (n = 6) subjected to daily s.c. injections of estradiol, except for the control group. […] On the 4th day, all rats were sacrificed by cervical dislocation, and the uteri were dissected free of fat and weighed immediately. […] The results were expressed as percent inhibition from the formula [drawing 1] […] It is noteworthy that doses of the tested compounds are calculated on a molar basis. […] Values are expressed as mean ± SEM.

ER-α = experiment: In vitro ER-α inhibitory ELISA assay in MCF-7 cells; assay type: cell-based, human; settings: 1 μg/mL, 24 h
Description: An in vitro ER-α inhibitory ELISA assay was performed using a Human ER-α/Estrogen Receptor ELISA Kit (Sandwich ELISA) (Lifespan Biosciences, Seattle, Washington, USA) as previously described.[64] The cells were plated at a density of 2000 cells/well in a 96-well plate. […] After 24 h, the pellets of the cells were collected by centrifugation. The cells were washed three times with PBS and then lysed by ultrasonication, and the supernatant was collected for testing. The wells were loaded with 100 μL of either standards or samples and incubated for 90 min at 37 °C. The wells were washed with 1× wash buffer for removing any unbound sample and 100 μL 1× biotinylated detection antibody was next put in and incubated for 1 h at 37 °C. The wells were rewashed with 1× wash buffer, and 100 μL 1× HRP conjugate was then added and incubated for 30 min at 37 °C. A third wash with 1× wash buffer was done and 90 μL of the TMB substrate was added. The TMB substrate reacted with the HRP enzyme, ensuring a color development, and the reaction was terminated using 50 μL of a stop solution. Finally, the optical density (OD) of the well was measured at a wavelength of 450 nm ± 2 nm. The OD of an unknown sample was calculated by correlation with a standard curve generated by standards with known concentrations.

Solubility test by HPLC = assay type: physicochemical
Description: Studying drug solubility is a crucial part of the pre-formulation study. It is an integral phase that every drug has been through in any development process to determine its bioavailability and the best excipients used during formulation. The solubility of compound 6j was detected using HPLC in methanol, ethanol, and acetonitrile. […] With such results, compound 6j requires the addition of a surfactant to increase its solubility, especially in water. Different types of surfactants could be used to study their effect on increasing solubility in future plans. We see that this compound has the potential to go through the formulation study. […] Accordingly, the active compound 6j was analyzed with SwissADME. The physicochemical properties of compound 6j, molecular weight (392.83 g/mol), fraction Csp3 (0.09), rotatable bonds (5), H-bond acceptors (4), H-bond donors (1), molar refractivity (112.41), and topological polar surface area (TPSA) (60.45 Å^2) were measured. For lipophilicity, log Po/w (XLOGP3) (3.93), log Po/w (WLOGP) (3.98), log Po/w (MLOGP) (2.66), log Po/w (SILICOS-IT) (5.03) and consensus It was measured as log Po/w (3.75). […] The drug-likeness status of 6j was detected as suitable according to Lipinski, Ghose, Veber, Egan, and Muegge’s limited rules.[44] […]

COc1cc(C=C2C(=O)Nc3ccc(Cl)cc32)ccc1OCc1ccccn1 (mixture of isomers) [6j]
anti-uterotrophic activity (inhibition of estrogen-induced uterine weight) [1]: 38% | ER-α pg/mL (mean ± SEM) (ER-α): 424.9 ± 17.2 pg/mL | inhibition (%) of ER-α (ER-α; compared to control): 62% and 62.4% | water solubility (Solubility test by HPLC): did not detect any water solubility
